Entries after “also recorded” stand apart in the source; their conditions may differ.
How the values were obtained:
[1] = DPPH radical scavenging activity; details: compound solution 0.2 mM in MeOH mixed 1:1 with 0.2 mM DPPH, 40 min, 20 °C
Experimental: The free radical scavenging activity was evaluated using the stable radical 2,2-diphenyl-1-picrylhydrazyl (DPPH), according to the method described by Brand-Williams with a slight modification. Solutions of the compounds in MeOH were studied at a concentration of 0.2 mM. The stock DPPH solution contained 0.2 mM of radical in MeOH. An amount of 0.1 mL of the test compound solution was added to 0.1 mL of DPPH solution (0.2 mM) in each cell so that the initial DPPH concentration in the cells was 0.1 mM. The microplate was placed in a spectrophotometer, and the decrease in the absorbance values of the DPPH solution for 40 min at 20 °C was measured at λmax = 517 nm. The results were expressed as scavenging activity, calculated as follows: scavenging activity, % = [(A0 − A1)/A0] × 100, where A0 is the optical density of the control solution DPPH, and A1 is the optical density of the reaction mixture solution.

[2] = Cupric reducing antioxidant capacity (CUPRAC); details: Trolox equivalents (Trolox = 1); compound 0.5 mM, 30 min
Description: To confirm the SET mechanism, the reducing activity of the compounds was studied using tests CUPRAC (Cupric-Reducing Antioxidant Capacity) and FRAP (Ferric ion-Reducing Antioxidant Power). Unlike the DPPH and ABTS tests, these methods are based only on the ability of substances to act as electron donors. It should be noted that the CUPRAC test has several advantages: the manifestation of activity at a pH close to the physiological value and a favorable redox potential; the method is applicable to both lipophilic and hydrophilic antioxidants. The antioxidant potential of the studied derivatives 4a–g and 5a is estimated in equivalents of the water-soluble analog of vitamin E—Trolox (TEAC—Trolox Equivalent Antioxidant Capacity), the activity of which is taken as the unit ([…] = 1, […] = 1).
Neocuproine (2,9-dimethyl-1,10-phenanthroline) and Trolox were used with no further purification. The method proposed by Apak et al. was used with slight modifications. For these measurements, 0.05 mL of CuCl2 solution (0.01 M), 0.05 mL of MeOH neocuproine solution (7.5 mM) and 0.05 mL of ammonium acetate buffer solution (1 M) were added to a test tube, followed by mixing with the 0.05 mL tested compounds (0.5 mM). The mixtures were kept at room temperature for 30 min. The absorbance was measured at 450 nm against a reagent blank. The results were presented in Trolox equivalents (Trolox equivalent antioxidant capacity, TEAC) obtained using absorbance data, and the linear calibration curve was plotted as the absorbance vs. Trolox concentration.

[3] = Antiradical activity in nonenzymatic quinoid oxidation of adrenaline; details: adrenaline autoxidation without compound = 100%; initial concentration 25 µM
Experimental: The antiradical activity of compounds 4a–g and 5a in the reaction of nonenzymatic quinoid oxidation of adrenaline (1-(3,4-dioxyphenyl)-2-methylaminoethanol) in alkaline bicarbonate buffer was evaluated. As a result of this reaction, not only the superoxide anion radical is formed, but also radicals of carbonate–bicarbonate anions, which makes it possible to reveal the total antiradical activity of potential antioxidants. […] Thus, we confirmed the antiradical activity of compounds 4a–g and 5a with respect to O2^–• generated in enzymatic and nonenzymatic model systems.
SOD-protective activity of the biopreparation was the ability to utilize the superoxide anion radical O2^–•, as determined by the method of Sirota. A cytosolic fraction of the Russian sturgeon liver homogenate was used as the source of SOD. First, the sturgeon liver was washed with cold 0.2 M Tris (tris (hydroxymethyl) aminomethane) buffer (pH 7.8) to remove any traces of blood. All of the procedures were performed at a temperature of 0–4 °C. Next, a homogenate was obtained using a Potter homogenizer (Thomas Scientific, Swedesboro, NJ, USA) in 0.2 M Tris buffer at a ratio of 1:10. The homogenate was then centrifuged for 10 min at 1000× g to remove partially destroyed cells and nuclei. The resulting supernatant contained the enzymes of the cytosolic fraction of the liver homogenate, including the SOD. Here, 10 µL of the biopreparation was added to a cuvette with 200 µL of bicarbonate buffer (pH 10.65), 10 µL of the tested compound (initial concentrations of these compounds 25 µM) and 10 µL of 0.1% adrenaline solution and was thoroughly and quickly mixed. The rate of adrenaline oxidation without and in the presence of the biopreparation was evaluated by the change in optical density, measured at 347 nm for 3 min. The decrease in the rate of the process in the presence of the biopreparation was used to characterize the SOD-protective activity.

[4] = Ferrous ions (Fe2+) chelating activity (FIC); details: compound 5 mM; EDTA taken as 100%
Description: One of the most important antioxidant properties of compounds is the ability to chelate transition metal ions, including iron, which participate in the Fenton reaction, forming an active HO^• and H2O2 and contributing to the development of radical processes, respectively, leading to oxidative damage to cells. In this regard, potential antioxidants can act not only as scavengers of active radicals but also have chelating properties. Therefore, the Ferrous Ions Chelating Activity (FIC) of compounds 4a–g and 5a were evaluated in this work by their ability to bind iron(II), which is expressed in a decreased amount of the colored ferrozine complex.
The chelation of ferrous ions by compounds was estimated by the method of Dinis et al. Briefly, 10 μL of 2 mM FeCl2 was added to 20 μL of the investigated compound (5 mM) and 150 μL of EtOH. The reaction was initiated by the addition of 0.04 mL of 5 mM ferrozine solution. The mixture was left to stand at 35 °C for 10 min. The absorbance of the solution was thereafter measured at 562 nm. The percentage inhibition of ferrozine–Fe^2+ complex formation was calculated as […], where A0 is the absorbance of the control, and As is the absorbance of the compound/standard. Na2EDTA was used as the positive control.

## [Se]=C(Nc1ccccc1)NC1C2CC3CC(C2)CC1C3 (centres unmarked) [4g, 1-(Adamantan-2-yl)-3-phenylselenourea]
[1]
  % Inhibition DPPH•: 71.82 ± 1.10%
[2]
  TEACCUPRAC: 2.48 ± 0.16
[3]
  % Inhibition, Antiradical Activity (O2–•): 24.66 ± 1.33%
[4]
  % Inhibition FIC: 19.74 ± 1.57%

## [Se]=C(NCc1ccccc1)NC12CC3CC(CC(C3)C1)C2 [5a, 1-(Adamantan-1-yl)-3-benzylselenourea]
[1]
  % Inhibition DPPH•: 59.45 ± 0.09%
[2]
  TEACCUPRAC: 1.62 ± 0.4
[3]
  % Inhibition, Antiradical Activity (O2–•): 43.79 ± 0.02%
[4]
  % Inhibition FIC: not established; also recorded: non active

## [Se]=C(NCC12CC3CC(CC(C3)C1)C2)Nc1ccccc1 [4b, 1-[(Adamantan-1-yl)methyl]-3-phenylselenourea]
[1]
  % Inhibition DPPH•: 70.75 ± 1.10%
[2]
  TEACCUPRAC: 3.04 ± 0.11
[3]
  % Inhibition, Antiradical Activity (O2–•): 19.37 ± 0.88%
[4]
  % Inhibition FIC: 14.15 ± 2.27%

## CC(NC(=[Se])Nc1ccccc1)C12CC3CC(CC(C3)C1)C2 (centres unmarked) [4c, 1-[1-(Adamantan-1-yl)ethyl]-3-phenylselenourea]
[1]
  % Inhibition DPPH•: 68.81 ± 1.69%
[2]
  TEACCUPRAC: 3.39 ± 0.11
[3]
  % Inhibition, Antiradical Activity (O2–•): 21.64 ± 2.29%
[4]
  % Inhibition FIC: 21.90 ± 1.88%

## CC12CC3CC(C)(C1)CC(NC(=[Se])Nc1ccccc1)(C3)C2 [4f, 1-(3,5-Dimethyladamantan-1-yl)-3-phenylselenourea]
[1]
  % Inhibition DPPH•: 58.35 ± 0.92%
[2]
  TEACCUPRAC: 0.22± 0.01
[3]
  % Inhibition, Antiradical Activity (O2–•): 20.95 ± 1.20%
[4]
  % Inhibition FIC: 26.20 ± 3.20%

## [Se]=C(Nc1ccccc1)Nc1ccc(C23CC4CC(CC(C4)C2)C3)cc1 [4e, 1-[4-(Adamantan-1-yl)phenyl]-3-phenylselenourea]
[1]
  % Inhibition DPPH•: 66.15 ± 0.56%
[2]
  TEACCUPRAC: 0.99 ± 0.05
[3]
  % Inhibition, Antiradical Activity (O2–•): 23.68 ± 0.03%
[4]
  % Inhibition FIC: not established; also recorded: non active

## [Se]=C(NCCC12CC3CC(CC(C3)C1)C2)Nc1ccccc1 [4d, 1-[2-(Adamantan-1-yl)ethyl]-3-phenylselenourea]
[1]
  % Inhibition DPPH•: 70.90 ± 2.13%
[2]
  TEACCUPRAC: 3.29 ± 0.12
[3]
  % Inhibition, Antiradical Activity (O2–•): 9.97 ± 0.41%
[4]
  % Inhibition FIC: not established; also recorded: non active

## [Se]=C(Nc1ccccc1)NC12CC3CC(CC(C3)C1)C2 [4a, 1-(Adamantan-1-yl)-3-phenylselenourea]
[1]
  % Inhibition DPPH•: 44.89 ± 0.04%
[2]
  TEACCUPRAC: 1.07 ± 0.11
[3]
  % Inhibition, Antiradical Activity (O2–•): 35.49 ± 0.03%
[4]
  % Inhibition FIC: 13.6 ± 0.04%
